# Laboratory results reported in paper PMC7582714, “Cooperative Binding of the Cationic Porphyrin Tris-T4 Enhances Catalytic Activity of 20S Proteasome Unveiling a Complex Distribution of Functional States” (International Journal of Molecular Sciences, 2020).
# Columns and labels:
# [1] = system: h20S; settings: cited from earlier work
# [2] = system: T1, wt y20S proteasome; test: 20S proteasome chymotryptic-like activity assay (Suc-LLVY-AMC), steady-state kinetics vs Tris-T4 concentration; assay type: biochemical, yeast
# T1 construct: Yeast CP 20S wild-type and the mutant form, α3ΔN, were purified as previously reported; made in house; host or cells: yeast
# From the text: (§1) Then, we have extended the investigation on the functional modulation of the chymotryptic-like activity by Tris-T4 porphyrin also to wt y20S proteasome and to its mutant α3ΔN, which is characterized by a significant enhancement of the enzymatic activity, ascribed to disruption of the gate closing mechanism.
# (§2) In addition, for the sake of clarity, in Scheme 1 some of these parameters are reported as interaction ratios, namely α = KAU/KAL, β = KBU/KBL, γ = KBU/KAU, and δ = KBL/KAL. Finally, σA and σB refer to the eventual effect of Tris-T4 binding on the catalytic rate-limiting step kcat of either state A and/or state B (see Scheme 1). […] (1) kobscat=kcatA⋅(1+KAL⋅[Tris_T4])^n+LL⋅kcatB⋅(1+KBL⋅[Tris_T4])^n/(1+KAL⋅[Tris_T4])^n+LL⋅(1+KBL⋅[Tris_T4])^n (2) Kobsm=K0m⋅(1+KAU⋅[Tris_T4])^n+LU⋅(1+KBI⋅[Tris_T4])^m⋅(1+KBU⋅[Tris_T4])^n/(1+KAL⋅[Tris_T4])^n+LL⋅(1+KBL⋅[Tris_T4])^n (3) kobscat/Kobsm=kcatA/KmA⋅(1+KAU⋅[Tris_T4])^n+LU⋅kcatB/KmB⋅(1+KBI⋅[Tris_T4])^m⋅(1+KBU⋅[Tris_T4])^n/(1+KAU⋅[Tris_T4])^n+LU⋅(1+KBI⋅[Tris_T4])^m⋅(1+KBU⋅[Tris_T4])^n
# (§3) 20S proteasome activity assays were performed in vitro in the assay buffer (i.e., 50 mM TrisHCl, pH 8.0) by mixing 20S proteasome (2 nM) with increasing concentrations (0.1–10 µM) of Tris-T4 incubating for 30 min at 37 °C. Then, varying concentrations (between 5 µM and 100 µM) of fluorogenic peptide were added in a 384 multiwell black plate. A minimum of three replicates were performed for each data point. […] Data relative to CP activities at different substrate concentrations have been analyzed by a double reciprocal Lineweaver–Burk plot, according to the following equation:(4) [E0]/v=Km/±kcatx 1/[S]+1/kcat where (E0) is the enzyme concentration, ν is the observed velocity (expressed as moles of substrate cleaved per time interval unit), (S) is the substrate concentration, Km is the Michaelis–Menten equilibrium constant, referring to the affinity for substrate, and kcat is the velocity of the rate-limiting step. All curve fitting and statistical analysis were carried out using the non-linear fitting tool (NLFit) and MatLab (The Math works Inc., Natick, MA, USA). The parametric data fitting was based on nonlinear regression and the method of least squares. Model discrimination and choice was based on the goodness of fit. The goodness of fit was evaluated by visual examination of the fitted curves, 95% confidence bounds for the fitted coefficients and statistical analysis for determining the square of the multiple correlation coefficient (R^2).The Gibbs free energy difference (ΔG^0 = −RT lnK) was calculated using the values of the equilibrium constants reported in Table 1 and corresponds to −ΔG^0 of the considered conformational transition equilibrium as depicted in Scheme 1.
# [3] = system: T2, h20S proteasome; test: STD and WaterLOGSY NMR interaction study; assay type: binding, human; settings: Tris-T4 175 μM, 20S 860 nM; 50 mM Hepes, 100 mM NaCl, 1mM DTT
# T2 construct: purchased Boston Biochem
# Method: For NMR interaction studies, Saturation Transfer Difference (STD) and WaterLogsy (WL) experiments were employed to derive the ligand binding epitope.
# As a starting point, the Tris-T4 structure has been analyzed by ^1H NMR spectroscopy in the buffer (50 mM Hepes, 100 mM NaCl and 1mM DTT). The ^1H chemical shift assignments of Tris-T4 are reported in Supplementary Figure S1. Both STD- and WL-NMR spectra of Tris-T4 were acquired in a 200-fold excess over the h20S proteasome.
# Then, to identify the ligand moiety more closely interacting with the protein, we evaluated and compared the saturation effects of the individual Tris-T4 proton resonances (ISTD = I0 − Isat). The signal showing the largest ISTD/I0 value, the para phenyl proton, was normalized to 100% (Figure 7). The relative degree of saturation of the individual protons, normalized to that of the para phenyl proton, was then used to compare the STD effect.
# [4] = system: T3, human 20S proteasome; test: 20S proteasome chymotryptic-like activity assay (Suc-LLVY-AMC), steady-state kinetics vs Tris-T4 concentration; assay type: biochemical
# T3 construct: purchased Boston Biochem
# From the text: In order to better characterize the effect of Tris-T4 on the functional properties of the 20S proteasome, we have carried out an investigation on the steady-state chymotryptic-like activity of h20S as a function of Tris-T4 concentration, employing different substrate concentrations.
# as §2, §3
# [5] = system: T4, yeast α3ΔN mutant of 20S proteasome; test: as above; assay type: biochemical
# T4 construct: Yeast CP 20S wild-type and the mutant form, α3ΔN, were purified as previously reported; made in house; host or cells: yeast
# T4 sequence (P23639 whole entry, stated change not applied): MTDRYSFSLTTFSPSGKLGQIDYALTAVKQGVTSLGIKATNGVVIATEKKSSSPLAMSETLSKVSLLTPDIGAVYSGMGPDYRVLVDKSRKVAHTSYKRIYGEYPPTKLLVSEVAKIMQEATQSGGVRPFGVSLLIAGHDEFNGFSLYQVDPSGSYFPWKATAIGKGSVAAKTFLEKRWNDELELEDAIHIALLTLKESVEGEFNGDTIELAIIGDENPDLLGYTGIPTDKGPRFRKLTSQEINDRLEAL
# T4 sequence (P32379 whole entry, stated change not applied, further chain): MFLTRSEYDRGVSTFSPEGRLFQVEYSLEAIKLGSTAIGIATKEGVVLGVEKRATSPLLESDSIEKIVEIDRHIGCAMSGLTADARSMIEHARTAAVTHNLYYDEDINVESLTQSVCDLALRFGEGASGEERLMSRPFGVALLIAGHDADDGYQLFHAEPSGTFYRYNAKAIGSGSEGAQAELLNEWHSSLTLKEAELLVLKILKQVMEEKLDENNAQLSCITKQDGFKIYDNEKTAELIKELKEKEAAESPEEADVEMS
# T4 sequence (P40303 whole entry, stated change not applied, further chain): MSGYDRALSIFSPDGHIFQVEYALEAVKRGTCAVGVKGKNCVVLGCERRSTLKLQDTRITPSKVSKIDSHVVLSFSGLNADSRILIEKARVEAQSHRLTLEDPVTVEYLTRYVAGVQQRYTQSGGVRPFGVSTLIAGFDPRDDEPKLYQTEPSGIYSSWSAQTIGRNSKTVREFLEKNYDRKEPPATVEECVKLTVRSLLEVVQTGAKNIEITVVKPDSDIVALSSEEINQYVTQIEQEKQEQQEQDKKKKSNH
# T4 sequence (P40302 whole entry, stated change not applied, further chain): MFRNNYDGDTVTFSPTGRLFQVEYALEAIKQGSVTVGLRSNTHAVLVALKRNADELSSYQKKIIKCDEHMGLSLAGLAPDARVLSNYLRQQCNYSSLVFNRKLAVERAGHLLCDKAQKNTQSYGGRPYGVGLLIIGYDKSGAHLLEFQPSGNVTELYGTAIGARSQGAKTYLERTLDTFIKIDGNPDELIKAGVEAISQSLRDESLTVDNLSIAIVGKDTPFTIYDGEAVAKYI
# T4 sequence (P21243 whole entry, stated change not applied, further chain): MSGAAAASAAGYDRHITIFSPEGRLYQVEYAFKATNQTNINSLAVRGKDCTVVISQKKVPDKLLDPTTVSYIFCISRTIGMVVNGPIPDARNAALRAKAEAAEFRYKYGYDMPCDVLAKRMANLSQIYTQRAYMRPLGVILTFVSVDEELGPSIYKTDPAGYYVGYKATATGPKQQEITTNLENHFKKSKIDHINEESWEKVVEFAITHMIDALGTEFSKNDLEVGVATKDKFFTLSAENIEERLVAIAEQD
# From the text: as §1, §2, §3
# [6] = system: purified rabbit 20S proteasome; set-up: method as in PMID 22642538; settings: 100 µM fluorogenic substrate; apparent inhibition; read-out: IC50, chymotryptic-like activity; cited from earlier work
# [7] = Michaelis-Menten constant in state A
# [8] = Michaelis-Menten constant in state B (stabilized by Tris-T4)
# [9] = state B, substrate-bound ES complex
# [10] = state A, substrate-bound ES complex
compound,measurement,setting,value
"C[n+]1ccc(-c2c3nc(c(-c4cc[n+](C)cc4)c4ccc([nH]4)c(-c4cc[n+](C)cc4)c4nc(c(-c5cc[n+](C)cc5)c5ccc2[nH]5)C=C4)C=C3)cc1 [H2T4, meso-tetrakis (4-N-methylpyridyl)-porphyrin]",mode of action on h20S,[1],competitive inhibitor
"C[n+]1ccc(-c2c3nc(c(-c4cc[n+](C)cc4)c4ccc([nH]4)c(-c4cc[n+](C)cc4)c4nc(c(-c5ccccc5)c5ccc2[nH]5)C=C4)C=C3)cc1 [Tris-T4, 5-(phenyl)-10,15,20-(tri N-methyl-4-pyridyl) porphyrin]","m, number of competitive inhibitory sites",[2]; Eq 1-3,1
same,"n, number of concerted allosteric binding sites for Tris-T4",[2]; Eq 1-3,2
same,KmA,[2]; [7],1.17(± 0.22) × 10^−4 M
same,KmB,[2]; [8],9.04(± 1.82) × 10^−6 M
same,effect on chymotryptic-like activity at higher Tris-T4 concentrations,"[2]; above 1 μM Tris-T4, overwhelms the activation",competitive inhibitory effect
same,"LU, equilibrium constant between A and B",[2]; absence of the substrate,6.0(± 1.0) × 10^−4 (2)
same,Tris-T4 concentration at which activation is essentially completed,[2]; chymotryptic-like activity,1 µM
same,kcatA,"[2]; rate-limiting step in state A, fit of Eq 1-3",0.95 ± 0.15 s⁻¹
same,kcatB,[2]; rate-limiting step in state B (stabilized by Tris-T4),0.17 ± 0.03 s⁻¹
same,"KAU, affinity constant for Tris-T4","[2]; state A, absence of substrate",3.0(± 0.5) × 10^5 M^−1
same,"KBI, affinity constant for Tris-T4 to the inhibitory competitive site",[2]; state B,2.5(± 0.4) × 10^6 M^−1
same,"KBU, affinity constant for Tris-T4","[2]; state B, absence of substrate",9.0(± 1.8) × 10^7 M^−1
same,"KBL, affinity constant for Tris-T4",[2]; [9],1.3(± 0.3) × 10^8 M^−1
same,"LL, equilibrium constant between A and B",[2]; substrate-bound ES complex,7.8(± 1.5) × 10^−3 (2)
same,"STD and WL-NMR spectra, interaction",[3],positive signals
same,effect on chymotryptic-like activity,"[4]; (Substrate) < 25 µM, Tris-T4 0-10 μM",activator
same,"m, number of competitive inhibitory sites",[4]; Eq 1-3,0
same,KmA,[4]; [7],1.95(± 0.37) × 10^−3 M
same,KmB,[4]; [8],1.5(± 0.3) × 10^−4 M
same,"LU, equilibrium constant between A and B","[4]; absence of the substrate, floating parameter of the two-state model",3.0(± 0.5) × 10^−6 (3)
same,Tris-T4 concentration at which activation is essentially completed,[4]; chymotryptic-like activity,3 µM
same,"n, number of concerted allosteric binding sites for Tris-T4","[4]; minimum value, Eq 1-3",3
same,kcatA,"[4]; rate-limiting step in state A, fit of Eq 1-3, substrate ≤ 25 μM, pH 8.0, 37 °C",11.5 ± 1.3 s⁻¹
same,kcatB,"[4]; rate-limiting step in state B (stabilized by Tris-T4), fit of Eq 1-3",0.32 ± 0.05 s⁻¹
same,"KAU, affinity constant for Tris-T4","[4]; state A, absence of substrate",2.0(± 0.3) × 10^4 M^−1
same,"KAL, affinity constant for Tris-T4",[4]; [10],1.2(± 0.3) × 10^4 M^−1
same,"KBU, affinity constant for Tris-T4","[4]; state B, absence of substrate",8.2(± 1.2) × 10^7 M^−1
same,"KBL, affinity constant for Tris-T4",[4]; [9],1.35(± 0.28) × 10^8 M^−1
same,"LL, equilibrium constant between A and B",[4]; substrate-bound ES complex,3.9(± 0.6) × 10^−5 (3)
same,free energy contribution of each Tris-T4 binding step (RTln(KBL/KAL)),[4]; substrate-bound state,5.71 kcal/mol
same,free energy contribution of each Tris-T4 binding step (RTln(KBU/KAU)),[4]; substrate-free conformation,5.11 kcal/mol
same,free energy for the A → B transition in favor of the B functional state (RTlnLUγ^3),[4]; substrate-free porphyrin triple-bound enzyme,7.5 kcal/mol
same,"m, number of competitive inhibitory sites",[5]; Eq 1-3,1
same,"n, number of concerted allosteric binding sites for Tris-T4",[5]; Eq 1-3,2
same,KmA,[5]; [7],4.1(± 0.6) × 10^−3 M
same,KmB,[5]; Michaelis-Menten constant in state B,1.07(± 0.27) × 10^−2 M
same,effect on chymotryptic-like activity,"[5]; Tris-T4 0-5 μM, no activation",only the competitive inhibitory effect is observed
same,"LU, equilibrium constant between A and B",[5]; absence of the substrate,3.9(± 0.6) × 10^−2
same,"KAU, affinity constant for Tris-T4","[5]; state A, absence of substrate",3.0(± 0.5) × 10^5 M^−1
same,"KAL, affinity constant for Tris-T4",[5]; [10],1.2(± 0.4) × 10^5 M^−1
same,kcatA,"[5]; state A, same kcat imposed for both states",49.5 ± 5.6 s⁻¹
same,"KBI, affinity constant for Tris-T4 to the inhibitory competitive site",[5]; state B,2.5(± 0.4) × 10^6 M^−1
same,"KBU, affinity constant for Tris-T4","[5]; state B, absence of substrate",9.0(± 1.8) × 10^7 M^−1
same,"KBL, affinity constant for Tris-T4",[5]; [9],1.3(± 0.3) × 10^8 M^−1
same,kcatB,"[5]; state B, same kcat imposed for both states",49.5 ± 5.6 s⁻¹
same,"LL, equilibrium constant between A and B",[5]; substrate-bound ES complex,1.5(± 1.0) × 10^−2
same,IC50,[6],920 ± 60 nM
"C[n+]1ccc(-c2ccc(-c3c4nc(c(-c5ccc(-c6cc[n+](C)cc6)cc5)c5ccc([nH]5)c(-c5ccc(-c6cc[n+](C)cc6)cc5)c5nc(c(-c6ccc(-c7cc[n+](C)cc7)cc6)c6ccc3[nH]6)C=C5)C=C4)cc2)cc1 [pTMPyPP4, meso-tetrakis (4-N-methylphenyl-pyridyl)-porphyrin]",mode of action on h20S,[1],allosteric inhibitor
